Where two headings read alike, the source gives them in different places.
Legend:
HCV 1a replicon = experiment: Cell-based HCV replicon assay (TaqMan), genotype 1a replicon; settings: HCV genotype 1a replicon cells, replicon RNA by real time PCR, day 3, EC90 = concentration for ΔCT=3.2 over baseline
Experimental: (§1) Measurement of inhibition by compounds of the present invention was performed using the HCV replicon system. Several different replicons encoding different HCV genotypes or mutations were used. In addition, potency measurements were made using different formats of the replicon assay, including different ways of measurements and different plating formats. See Jan M. Vrolijk et al., A replicons-based bioassay for the measurement of interferons in patients with chronic hepatitis C, 110 J. VIROLOGICAL METHODS 201 (2003); Steven S. Carroll et al., Inhibition of Hepatitis C Virus RNA Replication by 2′-Modified Nucleoside Analogs, 278(14) J. BIOLOGICAL CHEMISTRY 11979 (2003). However, the underlying principles are common to all of these determinations, and are outlined below.
(§2) TaqMan®-Based Assay Protocol:
(§3) Compounds of the present invention were assayed for cell-based anti-HCV activity using the following protocol. Replicon cells were seeded at 5000 cells/well in 96-well collagen I-coated Nunc plates in the presence of the test compound. Various concentrations of test compound, typically in 10 serial 2-fold dilutions, were added to the assay mixture, with the starting concentration ranging from 250 μM to 1 μM. The final concentration of DMSO was 0.5%, fetal bovine serum was 5%, in the assay media. Cells were harvested on day 3 by the addition of 1× cell lysis buffer (Ambion cat #8721). The replicon RNA level was measured using real time PCR (TaqMan® assay). The amplicon was located in 5B. The PCR primers were: 5B.2F, ATGGACAGGCGCCCTGA (SEQ. ID NO. 1); 5B.2R, […] (SEQ. ID NO. 2); the probe sequence was FAM-labeled CACGCCATGCGCTGCGG (SEQ. ID NO. 3). GAPDH RNA was used as endogenous control and was amplified in the same reaction as NS5B (multiplex PCR) using primers and VIC-labeled probe recommended by the manufacturer (PE Applied Biosystem). The real-time […] reactions were run on ABI PRISM 7900HT Sequence Detection System using the following program: 48° C. for 30 minutes, 95° C. for 10 minutes, 40 cycles of 95° C. for 15 sec, 60° C. for 1 minute. The ΔCT values (CT5B-CTGAPDH) were plotted against the concentration of test compound and fitted to the sigmoid dose-response model using XLfit4 (MDL). EC50 was defined as the concentration of inhibitor necessary to achieve ΔCT=1 over the projected baseline; EC90 the concentration necessary to achieve ΔCT=3.2 over the baseline. Alternatively, to quantitate the absolute amount of replicon RNA, a standard curve was established by including serially diluted T7 transcripts of replicon RNA in the Taqman assay. All TaqMan® reagents were from PE Applied Biosystems. Such an assay procedure was described in detail in e.g. Malcolm et al., Antimicrobial Agents and Chemotherapy 50: 1013-1020 (2006).
(§4) HCV replicon EC50 assay data for various replicons and mutants was calculated for selected compounds of the present invention using this method and is provided in the tables above herein.

HCV 1a Y93H replicon = experiment: Cell-based HCV replicon assay (TaqMan), 1a Y93H mutant replicon; settings: EC90 = concentration for ΔCT=3.2 over baseline
Experimental: as §1, §2, §3, §4

HCV 2b replicon = experiment: Cell-based HCV replicon assay (TaqMan), genotype 2b replicon; settings: EC90 = concentration for ΔCT=3.2 over baseline
Experimental: as §1, §2, §3, §4

[1] = Hepatitis C virus, 72 h, read-out: 1a Y93H EC90, HCV 1a Y93H mutant replicon cells, replicon RNA by real time PCR, day 3
[2] = Hepatitis C virus, 72 h, read-out: 2b EC90, HCV genotype 2b replicon cells, replicon RNA by real time PCR, day 3
[3] = read-out: 1a Y93H EC90, HCV 1a Y93H mutant replicon cells, replicon RNA by real time PCR, day 3
[4] = read-out: 2b EC90, HCV genotype 2b replicon cells, replicon RNA by real time PCR, day 3

SMILES	EC90 (HCV 1a replicon; Hepatitis C virus, 72 h) [nM]	EC90 (HCV 1a Y93H replicon; [1]) [nM]	EC90 (HCV 2b replicon; [2]) [nM]	EC90 (HCV 1a replicon) [nM]	EC90 (HCV 1a Y93H replicon; [3]) [nM]	EC90 (HCV 2b replicon; [4]) [nM]
COC(=O)N[C@H](C(=O)N1C[Si](C)(C)C[C@H]1c1nc2ccc3cc(-c4ccc(-c5cnc([C@@H]6CCCN6C(=O)[C@@H](NC(=O)OC)C6CC6)[nH]5)cc4)ccc3c2[nH]1)C(C)C [Compound 82]	0.24	659	154	–	–	–
COC(=O)N[C@@H](Cc1cn(C)cn1)C(=O)N1C[Si](C)(C)C[C@H]1c1nc2ccc3cc(-c4ccc(-c5cnc([C@@H]6CCCN6C(=O)[C@@H](NC(=O)OC)C(C)C)[nH]5)cc4)ccc3c2[nH]1 [Compound 65]	0.36	564	308	–	–	–
CC(C)(C)OC(=O)N1C[Si](C)(C)C[C@H]1c1nc2ccc3cc(-c4ccc(-c5nc(Cl)c([C@@H]6C[C@H]7C[C@H]7N6C(=O)OC(C)(C)C)[nH]5)cc4)ccc3c2[nH]1 [Compound 109]	> 1	> 100	–	–	–	–
COC(=O)N[C@H](C(=O)N1C[Si](C)(C)C[C@H]1c1ncc(-c2ccc(-c3ccc4c(ccc5nc([C@@H]6CCCN6C(=O)[C@@H](NC(=O)OC)[C@@H](C)OC)[nH]c54)c3)cc2)[nH]1)[C@@H](C)OC [Compound 36]	0.152	276	> 1000	–	–	–
COC(=O)N1CCOC[C@H]1C(=O)N1C[Si](C)(C)C[C@H]1c1ncc(-c2ccc(-c3ccc4c(ccc5nc([C@@H]6CCCN6C(=O)[C@@H]6COCCN6C(=O)OC)[nH]c54)c3)cc2)[nH]1 [Compound 39]	149	> 1000	> 1000	–	–	–
CC[C@H](C)[C@H](NC(=O)OC)C(=O)N1CCC[C@H]1c1ncc(-c2ccc(-c3ccc4c(ccc5nc([C@@H]6C[Si](C)(C)CN6C(=O)[C@@H](NC(=O)OC)C(C)C)[nH]c54)c3)cc2)[nH]1 [Compound 81]	0.3	994	561	–	–	–
CCC(C)[C@H](NC(=O)OC)C(=O)N1CCC[C@H]1c1ncc(-c2ccc(-c3ccc4c(ccc5nc([C@@H]6C[Si](C)(C)CN6C(=O)[C@@H](NC(=O)OC)C(C)CC)[nH]c54)c3)cc2)[nH]1 (some centres unmarked) [Compound 20]	0.063	> 100	> 100	–	–	–
CC[C@H](C)[C@H](NC(=O)OC)C(=O)N1C[Si](C)(C)C[C@H]1c1ncc(-c2ccc(-c3ccc4c(ccc5nc([C@@H]6CCCN6C(=O)[C@@H](NC(=O)OC)[C@@H](C)CC)[nH]c54)c3)cc2)[nH]1 [Compound 47]	–	–	–	0.59	953	578
COC(=O)N[C@@H](CC1CC1)C(=O)N1CCC[C@H]1c1ncc(-c2ccc(-c3ccc4c(ccc5nc([C@@H]6C[Si](C)(C)CN6C(=O)[C@@H](NC(=O)OC)C(C)C)[nH]c54)c3)cc2)[nH]1 [Compound 83]	0.46	528	406	–	–	–
COC(=O)N[C@@H](Cn1cccn1)C(=O)N1C[Si](C)(C)C[C@H]1c1nc2ccc3cc(-c4ccc(-c5cnc([C@@H]6CCCN6C(=O)[C@@H](NC(=O)OC)C(C)C)[nH]5)cc4)ccc3c2[nH]1 [Compound 66]	0.39	> 1000	321	–	–	–
COC(=O)N[C@H](C(=O)N1CCC[C@H]1c1ncc(-c2ccc(-c3ccc4c(ccc5nc([C@@H]6C[Si](C)(C)CN6C(=O)[C@@H]6COCCN6C(=O)OC)[nH]c54)c3)cc2)[nH]1)C(C)C [Compound 64]	1.6	> 1000	273	–	–	–
CC(C)(C)OC(=O)N1C[Si](C)(C)C[C@H]1c1nc2ccc3cc(-c4ccc(-c5cnc([C@@H]6C[C@H]7C[C@H]7N6C(=O)OC(C)(C)C)[nH]5)cc4)ccc3c2[nH]1 [Compound 97]	–	> 1000	–	> 1	–	–
COC(=O)N[C@H](C(=O)N1CCC[C@H]1c1ncc(-c2ccc(-c3ccc4c(ccc5nc([C@@H]6C[Si](C)(C)CN6C(=O)[C@@H](NC(=O)OC)C6CCCC6)[nH]c54)c3)cc2)[nH]1)C(C)C [Compound 58]	0.45	580	265	–	–	–
CCN(CC)[C@@H](C(=O)N1CCC[C@H]1c1ncc(-c2ccc(-c3ccc4c(ccc5nc([C@@H]6C[Si](C)(C)CN6C(=O)[C@@H](NC(=O)OC)C(C)C)[nH]c54)c3)cc2)[nH]1)c1ccccc1 [Compound 88]	0.26	500	10.9	–	–	–
CC(C)(C)OC(=O)N1C[Si](C)(C)C[C@H]1c1nc2ccc3cc(-c4ccc(-c5cnc([C@@H]6C[C@H]7C[C@H]7N6C(=O)OC(C)(C)C)[nH]5)cc4)ccc3c2[nH]1 [Compound 104]	–	–	> 1000	> 1000	> 1000	–
COC(=O)N[C@H](C(=O)N1C[Si](C)(C)C[C@H]1c1nc2ccc3cc(-c4ccc(-c5[nH]c([C@@H]6C[C@H]7C[C@H]7N6C(=O)[C@@H](NC(=O)OC)C6CCOCC6)nc5Cl)cc4)ccc3c2[nH]1)C1CCOCC1 [Compound 103]	0.082	16.1	2.85	–	–	–
COC(=O)N[C@H](C(=O)N1C[Si](C)(C)C[C@H]1c1nc2ccc3cc(-c4ccc(-c5cnc([C@@H]6CCCN6C(=O)[C@@H](NC(=O)OC)[C@@H](C)OC)[nH]5)cc4)ccc3c2[nH]1)C(C)C [Compound 89]	0.28	> 1000	> 1000	–	–	–
COC(=O)N[C@H](C(=O)N1C[Si](C)(C)C[C@H]1c1nc2ccc3cc(-c4ccc(-c5[nH]c([C@@H]6C[C@H]7C[C@H]7N6C(=O)[C@@H](NC(=O)OC)C(C)C)nc5Cl)cc4)ccc3c2[nH]1)C(C)C [Compound 102]	0.048	140	–	–	–	–
COC(=O)N[C@@H](CO)C(=O)N1CCC[C@H]1c1ncc(-c2ccc(-c3ccc4c(ccc5nc([C@@H]6C[Si](C)(C)CN6C(=O)[C@@H](NC(=O)OC)C(C)C)[nH]c54)c3)cc2)[nH]1 [Compound 90]	0.56	> 1000	> 1000	–	–	–
CC(C)(C)OC(=O)N1C[Si](C)(C)C[C@H]1c1nc2ccc3cc(-c4ccc(-c5[nH]c([C@@H]6C[C@H]7C[C@H]7N6C(=O)OC(C)(C)C)nc5Cl)cc4)ccc3c2[nH]1 [Compound 100]	> 1000	> 1000	> 1000	–	–	–
COC(=O)N[C@@H](Cn1ncnn1)C(=O)N1C[Si](C)(C)C[C@H]1c1ncc(-c2ccc(-c3ccc4c(ccc5nc([C@@H]6CCCN6C(=O)[C@H](Cn6ncnn6)NC(=O)OC)[nH]c54)c3)cc2)[nH]1 [Compound 38]	2.57	> 1000	408	–	–	–
COC(=O)N[C@H](C(=O)N1CCC[C@H]1c1ncc(-c2ccc(-c3ccc4c(ccc5nc([C@@H]6C[Si](C)(C)CN6C(=O)[C@@H](NC(=O)OC)C(C)OC)[nH]c54)c3)cc2)[nH]1)C(C)OC (some centres unmarked) [Compound 19]	0.036	> 100	> 100	–	–	–
CC(C)(C)OC(=O)N1CCC[C@H]1c1ncc(-c2ccc3cc(-c4ccc5c(ccc6nc([C@@H]7C[Si](C)(C)CN7C(=O)OC(C)(C)C)[nH]c65)c4)ccc3c2)[nH]1 [Compound 110]	> 1000	> 1000	–	–	–	–
COC(=O)N[C@@H](Cc1ccccc1)C(=O)N1C[Si](C)(C)C[C@H]1c1ncc(-c2ccc(-c3ccc4c(ccc5nc([C@@H]6CCCN6C(=O)[C@H](Cc6ccccc6)NC(=O)OC)[nH]c54)c3)cc2)[nH]1 [Compound 46]	4.75	> 1000	> 1000	–	–	–
CC[C@H](C)[C@H](NC(=O)OC)C(=O)N1C[Si](C)(C)C[C@H]1c1ncc(-c2ccc(-c3ccc4c(ccc5nc([C@@H]6CCCN6C(=O)[C@@H](NC(=O)OC)[C@@H](C)CC)[nH]c54)c3)cc2)[nH]1 [Compound 41]	–	614	–	0.19	–	271

Reference: patent US20150057246A1, “SILYL-CONTAINING HETEROCYCLIC COMPOUNDS AND METHODS OF USE THEREOF FOR THE TREATMENT OF VIRAL DISEASES” (priority 2012, published 2015)
